Patent US20260055110A1 (Azura Ophthalmics Ltd., priority 2021, published 2026)

Tests used:
Rabbit Cornea Esterase = assay: Rabbit Cornea Homogenate Stability Assay (Rabbit Cornea Esterase Assay); assay type: in vitro ADME
Method: Example 1: Rabbit Cornea Homogenate Stability Assay […]
Three to four rabbit corneas (e.g., New Zealand Whites (NZW) or Dutch Belted (DB)) of approx. 50 mg each were sliced and scraped with a scalpel and tweezers until reduced to small (1-3 mm), thin pieces. These were transferred into a glass vial containing approximately 2 mL of cold DPBS pH 7.4 buffer.
Sample was cooled intermittently on ice and shear homogenized for 3 minutes, then centrifuged for 3 min at 13,000 g. The supernatant was pipetted off into a vial, and total protein concentration determined at 280 nm. Sample was stored at −78° C.
10 mM Compound DMSO stocks were diluted to 10 μM in a glass vial: 10 μL of 10 mM Compound stock was added to 9,990 μl 50 mM DPBS, pH 7.4 buffer. Esterase homogenate was diluted to 300 ng/μl and 900 ng/μL in DPBS.
A heater shaker was set to 37° C. Into a suitable 96 well plate (Run Plate), 70 μL of 300 or 900 ng/μl esterase homogenate was pipetted into two rows as compounds were analyzed in duplicate (2 min, 5 min, 10 min, 20 min and 45 min). The plate was sealed and then warmed at 37° C. for 5 min.
Two 96 deep-well plates were put on ice (Kill Plates). To these, 990 μL of 50:50 MeCN—H2O were added to required rows, labelled 0 min 2 min, 5 min, 10 min, 20 min and 45 min. The plates were covered to minimize evaporation.
To both rows of the Run Plate, 70 μL of 10 μM compound solution was added. At the appropriate time point, 10 μL of the assay mixture was added to the matching kill plate well containing 990 μL of 50:50 cold MeCN—H2O. Samples were analyzed as soon as practicable by UPLC-MS (Waters Xevo TQ-S).
A heater shaker was set to 37° C. Into a suitable 96 well plate (Run Plate), 80 μL of 300 or 900 ng/μL esterase homogenate was pipetted into two rows as compounds were analyzed in duplicate (2 min, 5 min, 10 min, 20 min and 45 min). The plate was sealed and then warmed at 37° C. for 5 min.
Two 96 shallow-well plates were placed on ice (Kill Plates). To these, 180 μL of 60:40 MeCN-H2O+0.1% acetic acid are added to required rows. The plates were sealed to minimize evaporation.
To both rows of the Run Plate, 80 μL of 10 μM compound solution was added. At the appropriate time point, 20 μL of the assay mixture was added to the matching kill plate well containing 180 μL of 60:40 cold MeCN-H2O+0.1% acetic acid. For lipoic acid analysis, samples were analyzed as soon as practicable by LCMS (Waters Xevo TQ-S). For parent conjugate and parent analysis the samples are diluted further 1 in 10: 20 μL supernatant is added to 180 μL of 50:50 MeCN—H2O.

[1] = Aqueous Hydrolysis Stability Assay; details: DPBS pH 7.4, 37° C.
Method: Example 2: Aqueous Hydrolysis Stability Assay
Determination of aqueous stability of the test compounds was performed using UPLC-MS. A test compound 10 mM stock solution was prepared in DMSO. 10 μL of the DMSO stock solution was dissolved in 990 μL of DPBS pH 7.4 buffer to prepare a 100 μM stock. A further dilution was made by dissolving 75 μl of 100 μM stock into 225 μL of DPBS. Final DMSO concentration is 0.25%. The solution is kept at 37° C. and injected without delay into the LCMS (Waters Xevo TQ-). Additional injections were performed at appropriate time points.
Half-life (T1/2) of the parent conjugate was calculated using the peak area or measured concentration of the parent conjugate at each time point in the linear region of the log—linear plot.

[2] = target: T1, glucocorticoid receptor (GR) (Homo sapiens, UniProt P04150); assay: Glucocorticoid Binding Assay, GR (h) (agonist radioligand); details: IM9 cytosol, 3H-dexamethasone competitive binding
T1 construct: by mixing 1 mg of IM9 cytosol; host or cells: IM9 human lymphoblast cell cytosol
T1 sequence (P04150 1-777): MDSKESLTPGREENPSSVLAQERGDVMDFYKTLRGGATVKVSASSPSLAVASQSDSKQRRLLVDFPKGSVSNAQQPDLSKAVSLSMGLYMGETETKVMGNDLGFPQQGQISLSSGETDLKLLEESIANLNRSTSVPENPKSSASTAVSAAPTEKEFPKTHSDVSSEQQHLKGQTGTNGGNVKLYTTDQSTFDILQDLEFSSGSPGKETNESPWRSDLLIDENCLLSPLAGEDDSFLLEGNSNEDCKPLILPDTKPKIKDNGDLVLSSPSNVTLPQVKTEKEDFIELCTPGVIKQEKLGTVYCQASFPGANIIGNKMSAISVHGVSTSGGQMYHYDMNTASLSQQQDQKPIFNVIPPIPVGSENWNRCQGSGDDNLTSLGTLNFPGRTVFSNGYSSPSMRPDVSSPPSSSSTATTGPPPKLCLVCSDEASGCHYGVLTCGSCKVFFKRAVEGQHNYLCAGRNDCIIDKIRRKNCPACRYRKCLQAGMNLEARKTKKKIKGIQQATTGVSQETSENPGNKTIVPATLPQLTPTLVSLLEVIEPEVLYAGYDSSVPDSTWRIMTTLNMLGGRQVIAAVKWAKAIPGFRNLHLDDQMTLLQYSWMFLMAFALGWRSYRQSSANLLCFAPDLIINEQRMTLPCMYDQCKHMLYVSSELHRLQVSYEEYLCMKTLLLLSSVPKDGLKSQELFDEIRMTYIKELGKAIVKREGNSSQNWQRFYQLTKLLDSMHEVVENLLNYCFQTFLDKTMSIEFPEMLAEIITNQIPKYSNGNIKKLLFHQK
Method: GR (h) (agonist radioligand) assay performed by Eurofins Cerep, France using a method similar to the one described hereinbelow.
The human lymphoblast cell line IM9 is used as a source of the soluble glucocorticoid receptor (GR). The cells are grown to densities of 1 to 10×10^5 cells per milliliter in RPMI 1640 media containing 10% fetal bovine serum, penicillin (100 U/ml), streptomycin (100 μg/ml), and 2 mM L-glutamine at […] and 7% CO2 in a humidified incubator. The IM9 cells are harvested from the media by centrifugation for 10 minutes at 1500 g. Cells are washed in 12 volumes of Dulbecco's phosphate-buffered saline (PBS) and re-pelleted. Washed cells are resuspended in five to six volumes (per volume of packed cells) of homogenization buffer (10 mM TES, 10 mM sodium molybdate, 1 mM EDTA, pH 7.4, 20 mM 2-mercaptoethanol, and 10% glycerol), and the cells are broken by nitrogen cavitation using 2×15 minutes at 600 to 750 psi nitrogen in the N2 cavitator at 0° C. Cell disruption is confirmed by Hoffman contrast microscopy using a Nikon Diaphot. The broken cell preparation is then centrifuged at 27,000 g for 15 minutes, and the resultant supernatant was centrifuged at 103,000 g for 60 minutes at 4° C. The amount of protein in the supernatant fraction is determined using a BCA assay kit with a bovine serum albumin standard. Aliquots of the supernatant fraction are snap frozen in a dry ice-acetone bath and stored at −70° C. Competitive binding assays are done in duplicate in homogenization buffer (total volume of […]) by mixing 1 mg of IM9 cytosol, 0.05/ρCi (3 nM) of ^3H-dexamethasone, and Compounds described herein (10^−5 to 10^−11 M). After incubation at 0° C. for 16 to 18 hours, the assay is stopped by the addition of […] of a charcoal-dextran mixture (2% activated charcoal, 0.5% dextran in 10 mM Tris, 1 mM EDTA, pH 7.4). The assay mixture is further incubated at 0° C. for 10 minutes before being centrifuged for 5 minutes at 8200 g. A 100-μl sample of the supernatant (protein-bound steroid fraction) is assayed for radioactivity by liquid scintillation spectrometry, and the IC50 values were determined graphically.
In some instances, an ester is active in the glucocorticoid binding assay. In some instances, an ester retains activity, such as when attached to a keratolytic agent (or a radical thereof), in the glucocorticoid binding assay.

[3] = rabbit cornea homogenate 0.15 mg/mL total protein, DB, 37° C.
[4] = rabbit cornea homogenate 0.45 mg/mL total protein, DB, 37° C.
[5] = rabbit cornea homogenate 0.15 mg/mL total protein, NZW, 37° C.
[6] = rabbit cornea homogenate 0.45 mg/mL total protein, NZW, 37° C.

Esterase (0.15 mg/mL) % parent released after 45 min (Rabbit Cornea Esterase; [5]) | Esterase (0.45 mg/mL) % parent released after 45 min (Rabbit Cornea Esterase; [6]) | SMILES | other results
C (NZW) (51% to 75%) | C (NZW) (51% to 75%) | CNS(=O)(=O)CC1CCC(N(C)c2ncnc3c2ccn3COC(=O)CCCC[C@@H]2CCSS2)CC1 (some centres unmarked) [Compound 31] | Aqueous Stability (DPBS) % parent released after t min ([1]; t = 44): A (t = 44) (<25%)
D (NZW) (>75%) | D (NZW) (>75%) | N#CC[C@@H](C1CCCC1)n1cc(-c2ncnc3c2ccn3COC(=O)CCCC[C@@H]2CCSS2)cn1 [Compound 40] | Aqueous Stability (DPBS) % parent released after t min ([1]; t = 45): A (t = 45) (<25%)
B (NZW) (25% to 50%) | C (NZW) (51% to 75%) | CC(OC(=O)CCCC[C@@H]1CCSS1)n1ccc2c(-c3cnn([C@H](CC#N)C4CCCC4)c3)ncnc21 (some centres unmarked) [Compound 38] | Aqueous Stability (DPBS) % parent released after t min ([1]; t = 48): A (t = 48) (<25%)
B (NZW) (25% to 50%) | C (NZW) (51% to 75%) | N#CC[C@@H](C1CCCC1)n1cc(-c2ncnc3c2ccn3C(=O)CCCC[C@@H]2CCSS2)cn1 [Compound 39] | Aqueous Stability (DPBS) % parent released after t min ([1]; t = 45): B (t = 45) (25% to 50%)
B (NZW) (25% to 50%) | B (NZW) (25% to 50%) | C=CC(=O)N1C[C@H](Nc2ncnc3c2ccn3COC(=O)CCCC[C@@H]2CCSS2)CC[C@@H]1C [Compound 12] | Aqueous Stability (DPBS) % parent released after t min ([1]; t = 44): A (t = 44) (<25%)

The next lines start with the compound.

SMILES | Esterase (0.15 mg/mL) % parent released after 45 min (Rabbit Cornea Esterase; [5]) | Esterase (0.45 mg/mL) % parent released after 45 min (Rabbit Cornea Esterase; [6]) | other results
CC(C)OC(=O)OC(C)n1ccc2c(-c3cnn([C@H](CC#N)C4CCCC4)c3)ncnc21 (some centres unmarked) [Compound 50] | – | – | Esterase (0.15 mg/mL) % parent released after 45 min (Rabbit Cornea Esterase; [3]): D (DB) (>75%); Esterase (0.45 mg/mL) % parent released after 45 min (Rabbit Cornea Esterase; [4]): D (DB) (>75%); Aqueous Stability (DPBS) % parent released after t min ([1]; t = 44): B (t = 44) (25% to 50%)
CC(C)C(=O)OC(C)n1ccc2c(-c3cnn([C@H](CC#N)C4CCCC4)c3)ncnc21 (some centres unmarked) [Compound 48] | A (NZW) (<25%) | A (NZW) (<25%) | –
C[C@@H]1C[C@H]2[C@@H]3C[C@H](F)C4=CC(=O)C=C[C@]4(C)[C@@]3(F)[C@@H](O)C[C@]2(C)[C@@]1(OC(=O)CCCC[C@@H]1CCSS1)C(=O)O [Chemical Synthesis Example 68, (6S,8S,9R,10S,11S,13S,14S,16R,17R)-17-((5-((R)-1,2-Dithiolan-3-yl)pentanoyl)oxy)-6,9-difluoro-11-hydroxy-10,13,16-trimethyl-3-oxo-6,7,8,9,10,11,12,13,14,15,16,17-dodecahydro-3H-cyclopenta[a]phenanthrene-17-carboxylic acid] | – | – | EC50 [2]: 21 nM
CC(C)C(=O)n1ccc2c(-c3cnn([C@H](CC#N)C4CCCC4)c3)ncnc21 [Compound 49] | D NZW) (>75%) | D (NZW) (>75%) | –
CC(=O)N[C@@H](CS)C(=O)O[C@]1(C(=O)OCC#N)[C@H](C)C[C@H]2[C@@H]3C[C@H](F)C4=CC(=O)C=C[C@]4(C)[C@@]3(F)[C@@H](O)C[C@@]21C [Compound 73B, Cyanomethyl (6S,8S,9R,10S,11S,13S,14S,16R,17R)-17-((acetyl-L-cysteinyl)oxy)-6,9-difluoro-11-hydroxy-10,13,16-trimethyl-3-oxo-6,7,8,9,10,11,12,13,14,15,16,17dodecahydro-3H-cyclopenta[a]phenanthrene-17-carboxylate] | – | – | Esterase (0.15 mg/mL) % parent released after 45 min (Rabbit Cornea Esterase; Table 13, rabbit cornea homogenate 0.15 mg/mL, rabbit breed not given): A (<25%); Esterase (0.45 mg/mL) % parent released after 45 min (Rabbit Cornea Esterase; Table 13, rabbit cornea homogenate 0.45 mg/mL, rabbit breed not given): A (<25%)
C=CC(=O)N1C[C@H](Nc2ncnc3c2ccn3C(C)OC(=O)OC(C)C)CC[C@@H]1C (some centres unmarked) [Compound 22] | D (NZW) (>75%) | D (NZW) (>75%) | –
CC(C)OC(=O)n1ccc2c(-c3cnn([C@H](CC#N)C4CCCC4)c3)ncnc21 [Compound 51] | – | – | Esterase (0.15 mg/mL) % parent released after 45 min (Rabbit Cornea Esterase; [3]): A (DB) (<25%); Esterase (0.45 mg/mL) % parent released after 45 min (Rabbit Cornea Esterase; [4]): B (DB) (25% to 50%); Aqueous Stability (DPBS) % parent released after t min ([1]; t = 45): A (t = 45) (<25%)
C[C@]12C=CC(=O)C=C1CC[C@@H]1[C@@H]2[C@@H](O)C[C@@]2(C)[C@H]1CC[C@]2(OC(=O)CCCC[C@@H]1CCSS1)C(=O)OCCl [Compound 59] | – | – | Esterase (0.9 mg/mL) T1/2 (45 min) (Rabbit Cornea Esterase; rabbit cornea homogenate 0.9 mg/mL, NZW, 37° C.): 22.6 (NZW) min; Esterase (2.0 mg/mL) T1/2 (45 min) (Rabbit Cornea Esterase; rabbit cornea homogenate 2.0 mg/mL, NZW, 37° C.): 21.3 (NZW) min; Aqueous Stability (DPBS) T1/2 after t min ([1]; t = 45): 31.6 min
C=CC(=O)N1C[C@H](Nc2ncnc3c2ccn3C(=O)OC(C)C)CC[C@@H]1C [Compound 23] | A (NZW) (<25%) | A (NZW) (<25%) | –
